# In patent publication US12319655B2, “RAF kinase inhibitors and methods of use thereof” (Deciphera Pharmaceuticals, LLC, priority 2021, dated 2025):
# Columns and labels:
# [1] = tested on: WM3928 cells; test: WM3928 Cell Proliferation Assay (1); assay type: cell-based
# Outline: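 IC50 was derived from resazurin fluorescence (ex 540, em 600 nm) after a 6–7 h dye incubation. Before that, cells had 67–72 h of compound exposure at 37 °C, 5% CO2.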
# [2] = target: C-Raf kinase (SEQ. ID NO: 3) (Homo sapiens (Human), UniProt P04049, Y340D/Y341D); test: Biochemical Assay for C-Raf (1); details: Table J, assay version (1); read-out: CRAF (1) IC50
# C-Raf kinase (SEQ. ID NO: 3), sequence (P04049 307-648 Y340D/Y341D): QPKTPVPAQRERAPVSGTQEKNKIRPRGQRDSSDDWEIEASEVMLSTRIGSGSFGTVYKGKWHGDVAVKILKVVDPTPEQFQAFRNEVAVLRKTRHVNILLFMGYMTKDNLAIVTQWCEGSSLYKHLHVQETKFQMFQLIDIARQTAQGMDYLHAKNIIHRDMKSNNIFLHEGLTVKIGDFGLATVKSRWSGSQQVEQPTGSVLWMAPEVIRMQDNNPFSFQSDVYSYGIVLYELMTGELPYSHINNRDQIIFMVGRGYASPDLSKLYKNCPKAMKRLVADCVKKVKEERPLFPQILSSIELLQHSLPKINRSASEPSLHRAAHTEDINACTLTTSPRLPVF
# Outline: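 Coupled pyruvate kinase/LDH assay tracking NADH oxidation at 340 nm, with 0.43 nM C-Raf, 30.1 nM MEK and 1 mM ATP in pH 7.5 Tris buffer (15 mM MgCl2, 1% DMSO final). Read continuously for 6 h at 30 °C, rate taken from the 4–5 h window. IC50 from four-parameter fit of percent inhibition.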
# [3] = tested on: A375 cells; test: A375 Cell Proliferation Assay (1); assay type: cell-based; details: Homo sapiens, A-375
# Outline: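 Resazurin fluorescence (excitation 540 nm, emission 600 nm, after a further 5-6 h) gave IC50s from triplicate compound dilution series.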
# [4] = target: A-Raf kinase (SEQ. ID No: 1) (Homo sapiens (Human), UniProt P10398, Y301D/Y302D); test: Biochemical Assay for A-Raf (1); details: Table J, assay version (1); read-out: ARAF (1) IC50
# A-Raf kinase (SEQ. ID No: 1), sequence (P10398 other isoform, or with tags, fused parts or gaps Y301D (already in the parent)/Y302D (already in the parent)): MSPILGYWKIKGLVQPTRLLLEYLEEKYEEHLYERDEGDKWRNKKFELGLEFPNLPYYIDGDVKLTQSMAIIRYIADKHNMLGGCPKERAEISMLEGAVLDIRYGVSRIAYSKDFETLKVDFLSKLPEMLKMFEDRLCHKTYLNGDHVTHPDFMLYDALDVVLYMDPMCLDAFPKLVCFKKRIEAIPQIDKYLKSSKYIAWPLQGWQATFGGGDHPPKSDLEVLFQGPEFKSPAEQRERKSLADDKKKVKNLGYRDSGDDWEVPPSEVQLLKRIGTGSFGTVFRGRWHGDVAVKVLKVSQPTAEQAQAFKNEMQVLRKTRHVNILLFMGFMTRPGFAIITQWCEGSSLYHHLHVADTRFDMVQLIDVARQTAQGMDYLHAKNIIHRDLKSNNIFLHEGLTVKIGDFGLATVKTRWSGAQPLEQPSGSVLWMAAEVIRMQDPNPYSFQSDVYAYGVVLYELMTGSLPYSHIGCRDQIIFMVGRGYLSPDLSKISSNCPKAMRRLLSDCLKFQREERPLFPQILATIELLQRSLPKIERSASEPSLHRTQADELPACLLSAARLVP
# Outline: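 A-Raf Y301D/Y302D at 5.55 nM phosphorylates 30.1 nM MEK with 1 mM ATP in pH 7.5 Tris buffer, 1% DMSO. Activity was read continuously as NADH oxidation at 340 nm in a pyruvate kinase/lactate dehydrogenase coupled system for 6 h at 30 °C. Rates from 4–5 h were converted to percent inhibition, and IC50 came from a four-parameter fit.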
Structure (SMILES),IC50 [1] [nM],IC50 [2] [nM],IC50 [3] [nM],IC50 [4] [nM]
Cc1ncc(NC(=O)c2ccnc(C(C)(C)C#N)c2)cc1-c1cccc(-c2cc(NC(=O)C3CC3)ncn2)c1 [Example 181],≤ 100,≤ 100,≤ 100,1000 to 10000
CCC(=O)Nc1cc(-c2cccc(-c3cc(NC(=O)c4ccnc(C(C)(C)C#N)c4)cnc3C)n2)ccn1 [Example 182],≤ 100,≤ 100,100 to 500,1000 to 10000
Cc1ccc(NC(=O)c2ccnc(C3CC3)c2)cc1-c1cncc(-c2ccnc(NC(=O)C3CC3)c2)n1 [Example 184],≤ 100,≤ 100,≤ 100,100 to 500
